Measured values from paper PMC3898987 (Bioorganic & Medicinal Chemistry, 2013).
Residue numbers refer to the chain shown, from its start.

Experiments:
[1] = target: T1, 5-HT3AB receptor, 5-HT3B subunit E170A (Homo sapiens, UniProt P46098); experiment: FlexStation membrane potential dye functional assay, HEK293 cells; assay type: cell-based
T1 construct: variant as stated: E170A
T1 sequence (P46098 24-478): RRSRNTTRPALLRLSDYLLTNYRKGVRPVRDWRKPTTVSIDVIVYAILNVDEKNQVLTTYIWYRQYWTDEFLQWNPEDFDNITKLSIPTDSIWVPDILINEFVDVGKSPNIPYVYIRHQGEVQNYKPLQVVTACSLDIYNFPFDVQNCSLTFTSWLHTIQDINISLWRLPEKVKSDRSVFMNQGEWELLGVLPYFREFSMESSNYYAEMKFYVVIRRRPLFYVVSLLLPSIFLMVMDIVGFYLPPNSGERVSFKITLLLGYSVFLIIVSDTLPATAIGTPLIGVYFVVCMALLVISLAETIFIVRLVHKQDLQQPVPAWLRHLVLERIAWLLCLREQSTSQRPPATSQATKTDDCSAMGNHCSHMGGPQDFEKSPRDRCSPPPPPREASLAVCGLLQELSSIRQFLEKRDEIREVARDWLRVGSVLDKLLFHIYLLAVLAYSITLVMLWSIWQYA
T1 sequence (O95264 22-441 partner): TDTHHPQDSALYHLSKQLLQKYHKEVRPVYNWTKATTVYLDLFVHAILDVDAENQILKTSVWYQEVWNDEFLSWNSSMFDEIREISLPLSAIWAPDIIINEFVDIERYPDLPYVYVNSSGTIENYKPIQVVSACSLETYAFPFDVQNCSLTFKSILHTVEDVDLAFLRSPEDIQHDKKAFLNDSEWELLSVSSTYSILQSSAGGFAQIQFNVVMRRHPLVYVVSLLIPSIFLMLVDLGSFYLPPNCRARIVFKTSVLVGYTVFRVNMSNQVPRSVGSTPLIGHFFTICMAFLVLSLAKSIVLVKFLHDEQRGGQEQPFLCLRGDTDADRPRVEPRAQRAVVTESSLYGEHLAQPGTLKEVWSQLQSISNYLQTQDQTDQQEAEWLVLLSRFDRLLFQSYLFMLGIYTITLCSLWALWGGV
Experimental: Human embryonic kidney (HEK) 293 cells were cultured on 90 mm tissue culture plates at 37 °C and 7% CO2 in a humidified atmosphere. They were grown in DMEM:F12 (Dulbecco’s Modified Eagle’s Medium/Nutrient Mix F12 (1:1)) with GlutaMAX I™ containing 10% fetal calf serum and passaged when confluent. […] For FlexStation assays, transfected cells were plated on 96-well plates and incubated 1–2 days before assay.
Mutagenesis reactions were performed using either the Kunkel method or the QuikChange kit (Agilent Technologies Inc., CA, USA) using human 5-HT3A or 5-HT3B receptor subunit cDNA (accession numbers: P46098 and O95264) in pcDNA3.1 (Invitrogen, Paisley, UK). Subunit numberings have been altered to the aligning residues in the mouse 5-HT3A subunit for ease of comparison with other studies.
(§1) Fluorometric studies were undertaken using a FlexStation® (Molecular Devices, Sunnyvale, CA, USA) as previously described.[11]
(§2) Fluorescence was measured every 2 s for 200 s. […] Concentration–response and inhibition curves were obtained for each mutant, and the fluorescence values were normalized to the maximal response.

5-HT3A receptor Y73A [2] = target: T2, 5-HT3A receptor Y73A (Homo sapiens, UniProt P46098, Y68A); experiment: as above; assay type: cell-based; design: expressed in transfected cells; host or cells: HEK293; settings: inhibition of 5-HT (EC50 concentration) response, 45 min preincubation, 5-HT3A Y73A
T2 sequence (P46098 24-478 Y68A): T1 sequence (P46098 24-478) with Y45A
Experimental: For FlexStation assays, transfected cells were plated on 96-well plates and incubated 1–2 days before assay.
as §1, §2

5-HT3A receptor Y73A [3] = target: T2, 5-HT3A receptor Y73A; experiment: radioligand saturation binding, transfected HEK293 membranes; settings: [3H]-palonosetron saturation, 5-HT3A Y73A, 4 °C, 24 h
Experimental: (§3) Human embryonic kidney (HEK) 293 cells were cultured on 90 mm tissue culture plates at 37 °C and 7% CO2 in a humidified atmosphere. They were grown in DMEM:F12 (Dulbecco’s Modified Eagle’s Medium/Nutrient Mix F12 (1:1)) with GlutaMAX I™ containing 10% fetal calf serum and passaged when confluent. For radioligand binding studies, cells in 90 mm dishes were transfected at 60–70% confluency using polyethyleneimine and incubated for 3–4 days before use. For FlexStation assays, transfected cells were plated on 96-well plates and incubated 1–2 days before assay. […]
(§4) Eight-point binding assays were performed to produce saturation binding curves. […] Radioactive counts were measured using a Beckman LS6000SC liquid scintillation counter (Fullerton, California, USA).
(§5) Data were analyzed by iterative curve fitting using GraphPad Prism v5 (San Diego, CA) according to the following equation: B=Bmax[L]^n/kdn+[L]^n where B is the amount of bound radioligand, Bmax is the maximum specific binding at equilibrium, [L] is the concentration of radioligand, Kd is the equilibrium dissociation constant of the radioligand, and n is the Hill coefficient.

5-HT3A receptor Y73S = target: T3, 5-HT3A receptor Y73S (Homo sapiens, UniProt P46098, Y68S); experiment: as above; settings: [3H]-palonosetron saturation, 5-HT3A Y73S, 4 °C, 24 h
T3 sequence (P46098 24-478 Y68S): T1 sequence (P46098 24-478) with Y45S
Experimental: as §3, §4, §5

[4] = target: T4, 5-HT3AB receptor, 5-HT3B subunit I183A (Homo sapiens, UniProt O95264+P46098, I176A); experiment: as above; settings: [3H]-palonosetron saturation, 5-HT3AB with 5-HT3B I183A, 4 °C, 24 h
T4 sequence (P46098 24-478): T1 sequence (P46098 24-478)
T4 sequence (O95264 22-441 I176A): T1 sequence (O95264 22-441 partner) with I155A
Experimental: as §3, §4, §5

SMILES: O=C1c2cccc3c2[C@H](CCC3)CN1[C@@H]1CN2CCC1CC2 [Palonosetron]
- IC50 [1]: 0.36 ± 0.11 nM
- IC50 (5-HT3A receptor Y73A [2]): 13.1 ± 1.6 nM
- Kd (5-HT3A receptor Y73A [3]): 0.87 ± 0.04 nM
- Kd (5-HT3A receptor Y73S): 0.61 ± 0.11 nM
- Kd [4]: 0.23 ± 0.12 nM
